Each structure is given as a SMILES string. Converted amounts (≈) assume the structure as drawn. Where a SMILES comes first, the peptide text is derived from it.

Data set [1] concerns Staphylococcus epidermidis. Put plainly: Antibacterial activity against Staphylococcus epidermidis ATCC 12228 incubated for 18 to 24 hrs by broth microdilution method. The format is functional.
The subject of another data set is Pseudomonas aeruginosa. Put plainly: Antibacterial activity against Pseudomonas aeruginosa 25349 clinical isolate incubated for 18 to 24 hrs by broth microdilution method. The format is functional.
The nature of data set [2]: Therapeutic index, ratio of MHC for human RBC to geometric mean of peptide MIC for Escherichia coli ATCC 25922. The format is toxicity. As to conditions: pooled result: one value given for 6 cell lines, strains, targets or settings, read-out: TI.
Data set [3] has as its system Acinetobacter baumannii. Put plainly: Antibacterial activity against Acinetobacter baumannii AB1902 clinical isolate incubated for 18 to 24 hrs by broth microdilution method. The format is functional.
In data set [4] the test system is Acinetobacter baumannii. Put plainly: Antibacterial activity against Acinetobacter baumannii AB1901 clinical isolate incubated for 18 to 24 hrs by broth microdilution method. The format is functional.
The subject of the next data set is Salmonella typhimurium. Put plainly: Antibacterial activity against Salmonella enterica serovar typhimurium C77-31 incubated for 18 to 24 hrs by broth microdilution method. The format is functional, Salmonella enterica subsp. enterica serovar Typhimurium.
For data set [5], the system named is Staphylococcus aureus. Put plainly: Antibacterial activity against Staphylococcus aureus ATCC 29213 incubated for 18 to 24 hrs by broth microdilution method. The format is functional.
Data set [6] has as its system Escherichia coli. Put plainly: Antibacterial activity against Escherichia coli UB1005 incubated for 18 to 24 hrs by broth microdilution method. The data set is classed as functional.
Data set [7] relates to Escherichia coli. Put plainly: Antibacterial activity against Escherichia coli ATCC 25922 incubated for 18 to 24 hrs by broth microdilution method. The format is functional.
Data set [8] concerns Staphylococcus aureus. Put plainly: Antibacterial activity against Staphylococcus aureus 11011 incubated for 18 to 24 hrs by broth microdilution method. The data set is classed as functional.
The nature of data set [9]: Cytotoxicity against mouse RAW264.7 cells assessed as cell survival at < 32 uM after 24 hrs by MTT assay. The format is cell-based. As to conditions: read-out: Activity.
The test system of the next data set is Erythrocyte. Put plainly: Haemolytic activity in human erythrocytes assessed as lowest concentration causing 5% hemolysis after 1 hr. The data set is classed as ADME, cell-based.
The test system of data set [10] is Staphylococcus aureus. Put plainly: Antibacterial activity against Staphylococcus aureus ATCC 25923 incubated for 18 to 24 hrs by broth microdilution method. The format is functional.
The test system of data set [11] is Escherichia coli. Put plainly: Antibacterial activity against Escherichia coli 20411 clinical isolate incubated for 18 to 24 hrs by broth microdilution method. The format is functional.

With `CC(C)C[C@H](NC(=O)[C@H](CCCNC(=N)N)NC(=O)[C@H](Cc1c[nH]c2ccccc12)NC(=O)[C@H](CCCNC(=N)N)NC(=O)[C@@H](NC(=O)[C@H](CCCNC(=N)N)NC(=O)[C@H](Cc1c[nH]c2ccccc12)NC(=O)[C@H](CCCNC(=N)N)NC(=O)[C@H](CC(C)C)NC(=O)[C@H](CCCNC(=N)N)NC(=O)[C@@H](N)Cc1c[nH]c2ccccc12)[C@@H](C)O)C(=O)N[C@@H](CCCNC(=N)N)C(N)=O` (H-WRLRWRTRWRLR-NH2), the MIC is 2 µM (≈ 3.68 µg/mL) in data set [1]; 16 µM (≈ 29.4 µg/mL) against Pseudomonas aeruginosa; 4 µM (≈ 7.36 µg/mL) against Acinetobacter baumannii [3]; 4 µM (≈ 7.36 µg/mL) against Acinetobacter baumannii [4]; 4 µM (≈ 7.36 µg/mL) with Salmonella typhimurium; 2 µM (≈ 3.68 µg/mL) against Staphylococcus aureus [5]. In addition, the MIC against Escherichia coli [6] stood at 4 µM (≈ 7.36 µg/mL); in the data set with Escherichia coli [7], 4 µM (≈ 7.36 µg/mL); against Staphylococcus aureus [8] it was 2 µM (≈ 3.68 µg/mL); against Staphylococcus aureus [10], 2 µM (≈ 3.68 µg/mL); against Escherichia coli [11] it was 2 µM (≈ 3.68 µg/mL). Further, the selectivity ratio in [2] is 90.5. Moreover, the viability at 24 h in data set [9] is greater than 90%. Besides, the MHC in the data set with Erythrocyte was greater than 128 µM.
Turning to `C[C@@H](O)[C@H](NC(=O)[C@H](CCCNC(=N)N)NC(=O)[C@H](Cc1c[nH]c2ccccc12)NC(=O)[C@H](CCCNC(=N)N)NC(=O)[C@@H](NC(=O)[C@H](CCCNC(=N)N)NC(=O)[C@H](Cc1c[nH]c2ccccc12)NC(=O)[C@H](CCCNC(=N)N)NC(=O)[C@@H](NC(=O)[C@H](CCCNC(=N)N)NC(=O)[C@@H](N)Cc1c[nH]c2ccccc12)[C@@H](C)O)[C@@H](C)O)C(=O)N[C@@H](CCCNC(=N)N)C(N)=O` (H-WRTRWRTRWRTR-NH2), the MIC in [1] is 8 µM (≈ 14.5 µg/mL); against Pseudomonas aeruginosa it was greater than 64 µM; against Acinetobacter baumannii [3] it was 32 µM (≈ 58.1 µg/mL); in the data set on Acinetobacter baumannii [4] it was 32 µM (≈ 58.1 µg/mL); against Salmonella typhimurium, 4 µM (≈ 7.26 µg/mL); against Staphylococcus aureus [5], 4 µM (≈ 7.26 µg/mL). In addition, the MIC is 4 µM (≈ 7.26 µg/mL) in the data set on Escherichia coli [6]; 4 µM (≈ 7.26 µg/mL) in the data set with Escherichia coli [7]; 4 µM (≈ 7.26 µg/mL) in the data set on Staphylococcus aureus [8]; 8 µM (≈ 14.5 µg/mL) against Staphylococcus aureus [10]; 2 µM (≈ 3.63 µg/mL) in the data set with Escherichia coli [11]. The selectivity ratio in data set [2] amounted to 50.8. For the same compound, the viability at 24 h in data set [9] was greater than 90%. Besides, in the data set with Erythrocyte, the MHC was greater than 128 µM.
Consider `CC(C)[C@H](NC(=O)[C@H](CCCNC(=N)N)NC(=O)[C@H](Cc1c[nH]c2ccccc12)NC(=O)[C@H](CCCNC(=N)N)NC(=O)[C@@H](NC(=O)[C@H](CCCCN)NC(=O)[C@H](Cc1c[nH]c2ccccc12)NC(=O)[C@H](CCCNC(=N)N)NC(=O)[C@@H](NC(=O)[C@H](CCCNC(=N)N)NC(=O)[C@@H](N)Cc1c[nH]c2ccccc12)C(C)C)[C@@H](C)O)C(=O)N[C@@H](CCCCN)C(N)=O` (H-WRVRWKTRWRVK-NH2), for which the MIC is 4 µM (≈ 7.02 µg/mL) in [1]; 32 µM (≈ 56.2 µg/mL) in the data set with Pseudomonas aeruginosa; 8 µM (≈ 14 µg/mL) in the data set on Acinetobacter baumannii [3]; 8 µM (≈ 14 µg/mL) against Acinetobacter baumannii [4]; 4 µM (≈ 7.02 µg/mL) against Salmonella typhimurium; 2 µM (≈ 3.51 µg/mL) in the data set on Staphylococcus aureus [5]. Also, the MIC in the data set on Escherichia coli [6] turned out to be 2 µM (≈ 3.51 µg/mL); in the data set with Escherichia coli [7] it was 4 µM (≈ 7.02 µg/mL); against Staphylococcus aureus [8] it was 4 µM (≈ 7.02 µg/mL); in the data set on Staphylococcus aureus [10] it was 4 µM (≈ 7.02 µg/mL); in the data set on Escherichia coli [11] it was 4 µM (≈ 7.02 µg/mL). Further, the selectivity ratio in [2] was determined as 80.8. Also, the viability at 24 h in data set [9] was greater than 90%. For the same compound, the MHC in the data set on Erythrocyte is greater than 128 µM.
As to `CC(C)[C@H](NC(=O)[C@H](CCCNC(=N)N)NC(=O)[C@H](Cc1c[nH]c2ccccc12)NC(=O)[C@H](CCCNC(=N)N)NC(=O)[C@@H](NC(=O)[C@H](CCCCN)NC(=O)[C@H](Cc1c[nH]c2ccccc12)NC(=O)[C@H](CCCNC(=N)N)NC(=O)[C@@H](NC(=O)[C@H](CCCNC(=N)N)NC(=O)[C@@H](N)Cc1c[nH]c2ccccc12)C(C)C)C(C)C)C(=O)N[C@@H](CCCCN)C(N)=O` (H-WRVRWKVRWRVK-NH2), the MIC in [1] is 2 µM (≈ 3.51 µg/mL); against Pseudomonas aeruginosa, 4 µM (≈ 7.02 µg/mL); against Acinetobacter baumannii [3] it was 4 µM (≈ 7.02 µg/mL); against Acinetobacter baumannii [4], 2 µM (≈ 3.51 µg/mL); against Salmonella typhimurium, 2 µM (≈ 3.51 µg/mL); against Staphylococcus aureus [5] it was 1 µM (≈ 1.75 µg/mL). The MIC with Escherichia coli [6] was 2 µM (≈ 3.51 µg/mL); in the data set with Escherichia coli [7] it was 4 µM (≈ 7.02 µg/mL); against Staphylococcus aureus [8], 2 µM (≈ 3.51 µg/mL); in the data set on Staphylococcus aureus [10], 2 µM (≈ 3.51 µg/mL); against Escherichia coli [11], 1 µM (≈ 1.75 µg/mL). For the same compound, the selectivity ratio in data set [2] stood at 128. Further, the viability at 24 h in data set [9] was greater than 90%. The MHC in the data set with Erythrocyte is greater than 128 µM.

(Values after ChEMBL document CHEMBL4311942, “Design of Trp-Rich Dodecapeptides with Broad-Spectrum Antimicrobial Potency and Membrane-Disruptive Mechanism” (J Med Chem, 2019).)
